Earlier results as cited in patent publication US11667615B2, “Certain (2S)-N-[(1S)-1-cyano-2-phenylethyl]-1,4-oxazepane-2-carboxamides as dipeptidyl peptidase 1 inhibitors” (AstraZeneca AB, priority 2014, dated 2023).

Details: QWBA studies; concomitant ultra-structural changes by electron microscopy

retention in the aorta: retained selectively in the aorta
SMILES: CC(c1ccc(Cl)c(Cl)c1)N1N=C(N)CC1=O (stereo not shown) [muzolimine]
